Tested on: MV-4-11 cells
Assay: Gene expression microarray analysis (Affymetrix PrimeView) and GSEA
Type: cell-based, human
Design: RFU PODN (11730768_x_at) / Fold change /veh PODN (11730768_x_at) / RFU LINC00158 (11744669_a_at) / Fold change /veh LINC00158 (11744669_a_at) / RFU DUSP10 (11751237_a_at) / Fold change /veh DUSP10 (11751237_a_at) / RFU ID3 (11757404_x_at) / Fold change /veh ID3 (11757404_x_at) / RFU PLEKHG5 (11737974_s_at) / Fold change /veh PLEKHG5 (11737974_s_at) / RFU LRRC4B (11730491_at) / Fold change /veh LRRC4B (11730491_at) / RFU GIMAP4 (11747438_a_at) / Fold change /veh GIMAP4 (11747438_a_at) / RFU KRT8 (11758183_x_at) / Fold change /veh KRT8 (11758183_x_at) / RFU CNN1 (11734310_a_at) / Fold change /veh CNN1 (11734310_a_at) / RFU VPS37D (11726825_at) / Fold change /veh VPS37D (11726825_at) / RFU C10orf10 (11716522_x_at) / Fold change /veh C10orf10 (11716522_x_at) / RFU KIR2DL2 /// KIR2DL4 /// KIR2DL5A /// KIR2DL5B /// KIR2DS1 /// KIR2DS2 /// KIR2DS3 /// KIR2DS4 /// KIR3DL3 /// KIR3DL3 /// KIR3DS1 (11738374_at) / Fold change /veh KIR2DL2 /// KIR2DL4 /// KIR2DL5A /// KIR2DL5B /// KIR2DS1 /// KIR2DS2 /// KIR2DS3 /// KIR2DS4 /// KIR3DL3 /// KIR3DL3 /// KIR3DS1 (11738374_at) / RFU C1QL1 (11718748_at) / Fold change /veh C1QL1 (11718748_at) / RFU TMPRSS4 (11747572_a_at) / Fold change /veh TMPRSS4 (11747572_a_at) / RFU HAMP (11756126_x_at) / Fold change /veh HAMP (11756126_x_at) / RFU RNFT2 (11725882_a_at) / Fold change /veh RNFT2 (11725882_a_at) / RFU NR4A2 (11747474_a_at) / Fold change /veh NR4A2 (11747474_a_at) / RFU ABCC12 (11746883_a_at) / Fold change /veh ABCC12 (11746883_a_at) / RFU TMEM136 (11760407_x_at) / Fold change /veh TMEM136 (11760407_x_at) / RFU CLDN22 /// WWC2 (11732394_at) / Fold change /veh CLDN22 /// WWC2 (11732394_at) / RFU HLA-DPB1 (11760878_x_at) / Fold change /veh HLA-DPB1 (11760878_x_at) / RFU SPINT1 (11716480_a_at) / Fold change /veh SPINT1 (11716480_a_at) / RFU GAP43 (11754022_s_at) / Fold change /veh GAP43 (11754022_s_at) / RFU A4GNT (11735810_at) / Fold change /veh A4GNT (11735810_at) / RFU PRB3 (11715151_x_at) / Fold change /veh PRB3 (11715151_x_at) / RFU TUBB4B (11761932_at) / Fold change /veh TUBB4B (11761932_at) / RFU CAPN14 (11732068_a_at) / Fold change /veh CAPN14 (11732068_a_at) / RFU TMCC2 (11721928_a_at) / Fold change /veh TMCC2 (11721928_a_at) / RFU IRGQ (11745062_a_at) / Fold change /veh IRGQ (11745062_a_at) / RFU FAM174B (11720279_a_at) / Fold change /veh FAM174B (11720279_a_at) / RFU TMPRSS4 (11748680_a_at) / Fold change /veh TMPRSS4 (11748680_a_at) / RFU FAM212B (11763350_a_at) / Fold change /veh FAM212B (11763350_a_at) / RFU PLEKHG5 (11743358_a_at) / Fold change /veh PLEKHG5 (11743358_a_at) / RFU ZSCAN30 (11745921_a_at) / Fold change /veh ZSCAN30 (11745921_a_at) / RFU CMKLR1 (11741424_a_at) / Fold change /veh CMKLR1 (11741424_a_at) / RFU LOC101060620 /// MAPK8IP1 (11723275_at) / Fold change /veh LOC101060620 /// MAPK8IP1 (11723275_at) / RFU SPTSSB (11747773_x_at) / Fold change /veh SPTSSB (11747773_x_at) / RFU PRSS12 (11739890_at) / Fold change /veh PRSS12 (11739890_at) / RFU BIN1 (11741810_x_at) / Fold change /veh BIN1 (11741810_x_at) / RFU WNT11 (11732464_a_at) / Fold change /veh WNT11 (11732464_a_at) / RFU C10orf10 (11716521_a_at) / Fold change /veh C10orf10 (11716521_a_at) / RFU C5orf56 (11738089_at) / Fold change /veh C5orf56 (11738089_at) / RFU CYB561 (11721691_x_at) / Fold change /veh CYB561 (11721691_x_at) / RFU ANKRD19P (11752326_a_at) / Fold change /veh ANKRD19P (11752326_a_at) / RFU OR2T12 /// OR2T33 /// OR2T8 (11738714_s_at) / Fold change /veh OR2T12 /// OR2T33 /// OR2T8 (11738714_s_at) / RFU VCAN (11748164_a_at) / Fold change /veh VCAN (11748164_a_at) / RFU JSRP1 (11732532_at) / Fold change /veh JSRP1 (11732532_at) / RFU KRTAP10-11 (11738290_x_at) / Fold change /veh KRTAP10-11 (11738290_x_at) / RFU MYO3A (11730013_a_at) / Fold change /veh MYO3A (11730013_a_at) / RFU EBF3 (11725865_a_at) / Fold change /veh EBF3 (11725865_a_at) / RFU CAMK2N1 (11719241_x_at) / Fold change /veh CAMK2N1 (11719241_x_at) / RFU C5orf56 (11738088_a_at) / Fold change /veh C5orf56 (11738088_a_at) / RFU OLFML3 (11715873_a_at) / Fold change /veh OLFML3 (11715873_a_at) / RFU LOC100653217 /// NTM (11731650_a_at) / Fold change /veh LOC100653217 /// NTM (11731650_a_at) / RFU MAPK11 (11762145_a_at) / Fold change /veh MAPK11 (11762145_a_at) / RFU FIZ1 (11724087_x_at) / Fold change /veh FIZ1 (11724087_x_at) / RFU OASL (11726364_x_at) / Fold change /veh OASL (11726364_x_at) / RFU SOX15 (11748057_x_at) / Fold change /veh SOX15 (11748057_x_at) / RFU CD79A (11719716_a_at) / Fold change /veh CD79A (11719716_a_at) / RFU HIST1H1D (11736915_at) / Fold change /veh HIST1H1D (11736915_at) / RFU CASKIN2 (11723855_a_at) / Fold change /veh CASKIN2 (11723855_a_at) / RFU LOC730098 (11760151_x_at) / Fold change /veh LOC730098 (11760151_x_at) / RFU OR4N2 (11742367_at) / Fold change /veh OR4N2 (11742367_at) / RFU PRRT2 (11749266_a_at) / Fold change /veh PRRT2 (11749266_a_at) / RFU SNX32 (11753110_a_at) / Fold change /veh SNX32 (11753110_a_at) / RFU CDHR5 (11726645_a_at) / Fold change /veh CDHR5 (11726645_a_at) / RFU RCAN1 (11760418_a_at) / Fold change /veh RCAN1 (11760418_a_at) / RFU FAM167A (11723789_a_at) / Fold change /veh FAM167A (11723789_a_at) / RFU FAM26E (11764081_at) / Fold change /veh FAM26E (11764081_at) / RFU ISYNA1 (11749810_s_at) / Fold change /veh ISYNA1 (11749810_s_at) / RFU ACY1 (11761880_at) / Fold change /veh ACY1 (11761880_at) / RFU 11764098_at / Fold change /veh 11764098_at / RFU SAMD14 (11745864_x_at) / Fold change /veh SAMD14 (11745864_x_at) / RFU NPB (11741838_a_at) / Fold change /veh NPB (11741838_a_at) / RFU TMPRSS6 (11731388_a_at) / Fold change /veh TMPRSS6 (11731388_a_at) / RFU KRTAP10-2 (11738614_at) / Fold change /veh KRTAP10-2 (11738614_at) / RFU ARHGAP8 /// PRR5-ARHGAP8 (11727945_x_at) / Fold change /veh ARHGAP8 /// PRR5-ARHGAP8 (11727945_x_at) / RFU KRTAP5-7 /// NADSYN1 (11734609_at) / Fold change /veh KRTAP5-7 /// NADSYN1 (11734609_at) / RFU RASL12 (11751679_a_at) / Fold change /veh RASL12 (11751679_a_at) / RFU CDKN2B (11736163_a_at) / Fold change /veh CDKN2B (11736163_a_at) / RFU PRF1 (11729649_at) / Fold change /veh PRF1 (11729649_at) / RFU, ZNF638 /// ZNF638-IT1 / Fold change vs veh, ZNF638 /// ZNF638-IT1 / RFU, PANK3 / Fold change vs veh, PANK3 / RFU, SH3YL1 / Fold change vs veh, SH3YL1 / RFU, ZEB2 / Fold change vs veh, ZEB2 / RFU, NRIP1 / Fold change vs veh, NRIP1 / RFU, PTTG1IP / Fold change vs veh, PTTG1IP / RFU, CAPN2 / Fold change vs veh, CAPN2 / RFU, MED14 / Fold change vs veh, MED14 / RFU, SNORA58 / Fold change vs veh, SNORA58 / RFU, C1orf63 / Fold change vs veh, C1orf63 / RFU, LRRFIP1 / Fold change vs veh, LRRFIP1 / RFU, NDUFAF7 / Fold change vs veh, NDUFAF7 / RFU, SLC12A2 / Fold change vs veh, SLC12A2 / RFU, IBTK / Fold change vs veh, IBTK / RFU, ESF1 / Fold change vs veh, ESF1 / Fold change vs veh, TMEM50B / RFU, TAOK1 / Fold change vs veh, TAOK1 / RFU, ACBD3 / Fold change vs veh, ACBD3 / RFU, TMA16 / Fold change vs veh, TMA16 / RFU, RWDD3 / Fold change vs veh, RWDD3 / RFU, BCAT1 / Fold change vs veh, BCAT1 / RFU, EDEM3 / Fold change vs veh, EDEM3 / RFU, TMEM33 / Fold change vs veh, TMEM33 / RFU, WDR75 / Fold change vs veh, WDR75 / RFU, AHCTF1 / Fold change vs veh, AHCTF1 / RFU, TFRC / Fold change vs veh, TFRC / RFU, ZDHHC17 / Fold change vs veh, ZDHHC17 / RFU, NOM1 / Fold change vs veh, NOM1 / RFU, ARL8B / Fold change vs veh, ARL8B / RFU, ZBTB11 / Fold change vs veh, ZBTB11 / RFU, TAMM41 / Fold change vs veh, TAMM41 / RFU, KIAA1704 /// LOC100996395 / Fold change vs veh, KIAA1704 /// LOC100996395 / RFU, ING1 / Fold change vs veh, ING1 / RFU, TRMT61B / Fold change vs veh, TRMT61B / RFU, FUBP3 / Fold change vs veh, FUBP3 / RFU, TP53 / Fold change vs veh, TP53 / RFU, TNKS2 / Fold change vs veh, TNKS2 / RFU, ZFP14 / Fold change vs veh, ZFP14 / RFU, ACTR2 / Fold change vs veh, ACTR2 / RFU, PPP3R1 / Fold change vs veh, PPP3R1 / RFU, PIK3R1 / Fold change vs veh, PIK3R1 / RFU, HNRNPA1 / Fold change vs veh, HNRNPA1 / RFU, RNF170 / Fold change vs veh, RNF170 / RFU, ZNF28 / Fold change vs veh, ZNF28 / RFU, RNGTT / Fold change vs veh, RNGTT / RFU, OGT / Fold change vs veh, OGT / RFU, BRD1 / Fold change vs veh, BRD1 / RFU, MARS / Fold change vs veh, MARS / RFU, ZNF655 / Fold change vs veh, ZNF655 / RFU, FAHD1 / Fold change vs veh, FAHD1 / RFU, BDP1 / Fold change vs veh, BDP1 / RFU, LRRCC1 / Fold change vs veh, LRRCC1 / RFU, ARID1A / Fold change vs veh, ARID1A / RFU, ZNF146 / Fold change vs veh, ZNF146 / RFU, ZNF330 / Fold change vs veh, ZNF330 / RFU, GPN3 / Fold change vs veh, GPN3 / RFU, C9orf123 / Fold change vs veh, C9orf123 / RFU, N4BP2L2 / Fold change vs veh, N4BP2L2 / RFU, ARFIP1 / Fold change vs veh, ARFIP1 / RFU, FAM179B / Fold change vs veh, FAM179B / RFU, BCL10 / Fold change vs veh, BCL10 / RFU, UHRF1BP1L / Fold change vs veh, UHRF1BP1L / RFU, BET1 / Fold change vs veh, BET1 / RFU, CNOT2 / Fold change vs veh, CNOT2 / RFU, ZNF268 / Fold change vs veh, ZNF268 / Fold change vs veh, ZNF507 / RFU, DGCR2 / Fold change vs veh, DGCR2 / RFU, WDSUB1 / Fold change vs veh, WDSUB1 / Fold change vs veh, HSP90B1 /// MIR3652 / RFU, ADSS / Fold change vs veh, ADSS / RFU, GK / Fold change vs veh, GK / RFU, ZNF148 / Fold change vs veh, ZNF148 / RFU, TAF9 / Fold change vs veh, TAF9 / RFU, SLC1A5 / Fold change vs veh, SLC1A5 / RFU, SLMO2 / Fold change vs veh, SLMO2 / RFU, ABCC4 / Fold change vs veh, ABCC4 / RFU, LOC101060439 /// RAP1B / Fold change vs veh, LOC101060439 /// RAP1B / RFU, RFX7 / Fold change vs veh, RFX7 / RFU, GTPBP10 / Fold change vs veh, GTPBP10 / RFU, CNEP1R1 / Fold change vs veh, CNEP1R1 / RFU, BIVM-ERCC5 /// ERCC5 / Fold change vs veh, BIVM-ERCC5 /// ERCC5 / RFU, ILF3 / Fold change vs veh, ILF3 / RFU 11762660_at / Fold change /veh 11762660_at / RFU VCAN (11757783_s_at) / Fold change /veh VCAN (11757783_s_at) / RFU DDX43 (11728927_at) / Fold change /veh DDX43 (11728927_at) / RFU KRT8 (11758188_x_at) / Fold change /veh KRT8 (11758188_x_at) / RFU NKD1 (11759106_at) / Fold change /veh NKD1 (11759106_at) / RFU SRD5A1 (11742802_a_at) / Fold change /veh SRD5A1 (11742802_a_at) / RFU TPSAB1 /// TPSB2 (11721975_s_at) / Fold change /veh TPSAB1 /// TPSB2 (11721975_s_at) / RFU GSTM3 (11746129_a_at) / Fold change /veh GSTM3 (11746129_a_at) / RFU IL23R (11737362_x_at) / Fold change /veh IL23R (11737362_x_at) / RFU TMEM51 (11727254_a_at) / Fold change /veh TMEM51 (11727254_a_at) / RFU PIWIL2 (11732686_x_at) / Fold change /veh PIWIL2 (11732686_x_at) / RFU ORM1 (11744905_x_at) / Fold change /veh ORM1 (11744905_x_at) / RFU CCDC152 (11743942_at) / Fold change /veh CCDC152 (11743942_at) / RFU ECM1 (11717891_a_at) / Fold change /veh ECM1 (11717891_a_at) / RFU IL23R (11748794_a_at) / Fold change /veh IL23R (11748794_a_at) / RFU TNFAIP8L3 (11732012_x_at) / Fold change /veh TNFAIP8L3 (11732012_x_at) / RFU MBOAT4 (11741988_at) / Fold change /veh MBOAT4 (11741988_at) / RFU 11764193_at / Fold change /veh 11764193_at / RFU TMEM53 (11763286_at) / Fold change /veh TMEM53 (11763286_at) / RFU MAGEB2 (11727129_at) / Fold change /veh MAGEB2 (11727129_at) / RFU TMEM200A (11744735_a_at) / Fold change /veh TMEM200A (11744735_a_at) / RFU CCDC152 (11751479_a_at) / Fold change /veh CCDC152 (11751479_a_at) / RFU FAM211A (11726209_a_at) / Fold change /veh FAM211A (11726209_a_at) / RFU RGS16 (11746705_a_at) / Fold change /veh RGS16 (11746705_a_at) / RFU VCAN (11755009_s_at) / Fold change /veh VCAN (11755009_s_at) / RFU RHOB (11743442_s_at) / Fold change /veh RHOB (11743442_s_at) / RFU RGS16 (11720943_a_at) / Fold change /veh RGS16 (11720943_a_at) / RFU RGS16 (11720944_at) / Fold change /veh RGS16 (11720944_at) / RFU, VPS4B / Fold change vs veh, VPS4B / RFU, CREB1 / Fold change vs veh, CREB1 / RFU, DNAJC13 / Fold change vs veh, DNAJC13 / RFU, GNAQ / Fold change vs veh, GNAQ / RFU, CDK5R1 / Fold change vs veh, CDK5R1 / RFU, ZRANB3 / Fold change vs veh, ZRANB3 / RFU, CUL4A / Fold change vs veh, CUL4A / RFU, CCNY / Fold change vs veh, CCNY / RFU, UFL1 / Fold change vs veh, UFL1 / RFU, COG3 / Fold change vs veh, COG3 / RFU, DIAPH2 / Fold change vs veh, DIAPH2 / RFU, SKA2 / Fold change vs veh, SKA2 / RFU, AFF3 / Fold change vs veh, AFF3 / RFU, LMF1 / Fold change vs veh, LMF1 / RFU, IPO11 / Fold change vs veh, IPO11 / RFU, DFFB / Fold change vs veh, DFFB / RFU, FOXP1 / Fold change vs veh, FOXP1 / RFU, CARD8 / Fold change vs veh, CARD8 / RFU, STRN3 / Fold change vs veh, STRN3 / RFU, ADK / Fold change vs veh, ADK / RFU, RASSF2 / Fold change vs veh, RASSF2 / RFU, WIPF1 / Fold change vs veh, WIPF1 / RFU, LARP1B / Fold change vs veh, LARP1B / RFU, RASA1 / Fold change vs veh, RASA1 / RFU, RB1 / Fold change vs veh, RB1 / RFU, PPFIA1 / Fold change vs veh, PPFIA1 / RFU, MAT2A / Fold change vs veh, MAT2A / RFU, CCT5 / Fold change vs veh, CCT5 / RFU, WDR92 / Fold change vs veh, WDR92 / RFU, CUX1 / Fold change vs veh, CUX1 / RFU, TTC7A / Fold change vs veh, TTC7A / RFU, TMEM135 / Fold change vs veh, TMEM135 / RFU, DEPTOR / Fold change vs veh, DEPTOR / RFU, CPM / Fold change vs veh, CPM / RFU, DNAJB6 / Fold change vs veh, DNAJB6 / RFU, CACNA2D3 / Fold change vs veh, CACNA2D3 / RFU, DTX4 / Fold change vs veh, DTX4 / RFU, TFCP2 / Fold change vs veh, TFCP2 / RFU, GMCL1 /// GMCL1P1 / Fold change vs veh, GMCL1 /// GMCL1P1 / RFU, AEBP2 / Fold change vs veh, AEBP2 / RFU, SNHG1 /// SNORD22 /// SNORD25 /// SNORD26 /// SNORD27 /// SNORD28 /// SNORD29 /// SNORD31 / Fold change vs veh, SNHG1 /// SNORD22 /// SNORD25 /// SNORD26 /// SNORD27 /// SNORD28 /// SNORD29 /// SNORD31 / Fold change (Aza/veh), C12orf56 (ProbeSet 11735607_a_at) / Fold change (ACY-1035/veh), C12orf56 (ProbeSet 11735607_a_at) / Fold change (Aza/veh), FGFR1OP (ProbeSet 11751329_s_at) / Fold change (ACY-1035/veh), FGFR1OP (ProbeSet 11751329_s_at) / Fold change (Aza/veh), VPS36 (ProbeSet 11739960_a_at) / Fold change (ACY-1035/veh), VPS36 (ProbeSet 11739960_a_at) / RFU SYPL1 (11715823_x_at) / Fold change /veh SYPL1 (11715823_x_at) / RFU IGFBP7 (11715501_s_at) / Fold change /veh IGFBP7 (11715501_s_at) / RFU REEP3 (11722064_at) / Fold change /veh REEP3 (11722064_at) / RFU IGLL1 (11728026_x_at) / Fold change /veh IGLL1 (11728026_x_at): dose or concentration left out as unconfirmed
Conditions: ProbeSet 11718977_a_at; LIST B

## Nc1ncn([C@@H]2O[C@H](CO)[C@@H](O)[C@H]2O)c(=O)n1 [azacitidine]
  RFU, CAPN2: 169.72 RFU

From publication PMC5218480 (PLoS ONE, 2017)
